The text below walks through data of PMC8231556, “Inhibiting Endothelial Cell Function in Normal and Tumor Angiogenesis Using BMP Type I Receptor Macrocyclic Kinase Inhibitors” (Cancers, 2021).

Test [1] relates to constitutively active ALK2 (caALK2). Nature of the test: caALK2-induced BRE-Luc reporter activity in C2C12 cells. Type of test: cell-based. Particulars: C2C12 cells, 0.1, 0.5 or 1 μM, 16 hours. The source says: To further investigate and validate the selective inhibitory effects of OD16 and OD29 toward BMP9/ALK1 and BMP6/ALK2 signaling, we transfected C2C12 myoblast cells with constitutively active mutant ALK1 and ALK2 (caALK1 and caALK2). These constitutively active receptors signal in the absence of exogenous ligands and allow for a more direct assessment of inhibitory effects that are elicited by kinase receptor inhibitors.
Figure S2. Structural model of (A) LDN−193189, (B) OD16 (grey) overlay with LDN−193189 (green), (C) OD29 (grey) over-lay with LDN−193189 (green) bind to the ALK1 hinge region in the ATP pocket.
Figure S3. RT-qPCR analysis of the ALK1, ALK2 and GAPDH mRNA expression in EA.hy926 and HUVEC cells. Mean Cq and Cq standard error of the mean (SEM) are listed. Representative results from three independent experiments are shown.
Figure S4. OD29 and OD16 are two small molecule BMP type I receptors kinase inhibitors in C2C12 cells. Effects of vehicle control (DMSO), LDN−193189, OD16 or OD29 on BRE transcriptional luciferase reporter activity induced by the ectopic expression of caALK1 (A) or caALK2 (B) in C2C12 cells. Cells were incubated with the inhibitors in three different con-centrations (0.1 μM, 0.5 μM or 1 μM) for 16 hours. Representative results from three biologically independent experiments are shown as mean ± SD. NS, not significant; * p < 0.05, ** p < 0.005; *** p < 0.001. […]

Another test concerns the target ALK5 (Homo sapiens, UniProt P36897). Nature of the test: radiometric protein kinase assay, affinity (Kd). In kind it is binding. Here is the method:
(§1) The binding interaction profile of the compounds for ALK1–6, ACVR2A, ACVR2B, and TGFβR2 was determined by using radiometric protein kinase assay. For each compound, ten different concentrations (from 3 × 10^−6 M to 9 × 10^−11 M) were used in the protein kinase reaction. The inhibitor binding constants (Kd values) were calculated based on the 10 corresponding residual activities for each compound using Prism 5.04 (Graphpad, San Diego, CA, USA) according to the following formula:Kd = ([K][I]/[C]) where [K] = molar concentration of non-inhibitor bound kinase at equilibrium, [I] = molar concentration of the free inhibitor at equilibrium, [C] = molar concentration of kinase-inhibitor complex at equilibrium.

Another test concerns the target ALK2 (Homo sapiens, UniProt Q04771). Nature of the test: radiometric protein kinase assay, affinity (Kd). Type of test: binding. Here is the method:
as §1

The target in the next test is ACVR2B (Homo sapiens, UniProt Q13705). Description: radiometric protein kinase assay, affinity (Kd). In kind it is binding. How it is done: as §1
The next test has as its target ALK3 (Homo sapiens, UniProt P36894). Description: radiometric protein kinase assay, affinity (Kd). Type of test: binding. How it is done: as §1
The target in another test is ALK4 (Homo sapiens, UniProt P36896). Nature of the test: radiometric protein kinase assay, affinity (Kd). Type of test: binding. Here is the method: as §1
In the next test the test system is VEGF-induced pVEGFR. Nature of the test: Western blot of VEGF-induced VEGFR phosphorylation in HUVECs. In kind it is cell-based, human. To be noted: VEGF 40 ng/mL. How it is done: EA.hy926 cells or HUVECs were seeded in 6-well plates and starved in a serum-free medium for 4 h after reaching 80% confluence. The compounds were added 30 min prior to stimulation with the corresponding ligands. EA.hy926 cells were incubated with BMP9 (1 ng/mL), BMP6 (50 ng/mL), TGF-β2 (1 ng/mL), or vehicle control for 1 h. For HUVECs, after 4 h starvation, the cells were pre-treated with or without the indicated compounds for 30 min and subsequently stimulated with VEGF (40 ng/mL) for 10 min. The cells were harvested and lysed in radioimmunoprecipitation assay (RIPA) lysis buffer containing 1× complete protease inhibitor cocktail (11836153001, Roche, Basel, Switzerland). The protein concentration was determined using the DC protein assay kit (5000111, Bio-Rad). After adding loading buffer, the samples were boiled and proteins separated by sodium dodecyl sulfate polyacrylamide gel electrophoresis (SDS-PAGE). […] The protein bands were quantified using ImageJ (National Institutes of Health, Bethesda, MD, USA).

Chain of ACVR2B (Q13705 19-512): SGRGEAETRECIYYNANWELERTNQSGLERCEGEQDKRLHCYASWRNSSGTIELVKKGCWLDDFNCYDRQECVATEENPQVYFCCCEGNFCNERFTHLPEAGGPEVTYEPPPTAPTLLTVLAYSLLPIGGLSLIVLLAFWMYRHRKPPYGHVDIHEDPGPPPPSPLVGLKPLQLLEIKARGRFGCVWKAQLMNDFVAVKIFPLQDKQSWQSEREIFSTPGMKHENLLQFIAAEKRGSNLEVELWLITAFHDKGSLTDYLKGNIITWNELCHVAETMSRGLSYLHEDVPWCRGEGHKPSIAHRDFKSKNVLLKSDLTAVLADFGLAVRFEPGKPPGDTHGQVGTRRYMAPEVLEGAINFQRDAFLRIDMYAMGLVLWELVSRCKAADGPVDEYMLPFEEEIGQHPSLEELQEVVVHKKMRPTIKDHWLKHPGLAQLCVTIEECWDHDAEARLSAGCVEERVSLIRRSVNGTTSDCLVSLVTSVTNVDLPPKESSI
Chain of ALK4 (P36896 24-505): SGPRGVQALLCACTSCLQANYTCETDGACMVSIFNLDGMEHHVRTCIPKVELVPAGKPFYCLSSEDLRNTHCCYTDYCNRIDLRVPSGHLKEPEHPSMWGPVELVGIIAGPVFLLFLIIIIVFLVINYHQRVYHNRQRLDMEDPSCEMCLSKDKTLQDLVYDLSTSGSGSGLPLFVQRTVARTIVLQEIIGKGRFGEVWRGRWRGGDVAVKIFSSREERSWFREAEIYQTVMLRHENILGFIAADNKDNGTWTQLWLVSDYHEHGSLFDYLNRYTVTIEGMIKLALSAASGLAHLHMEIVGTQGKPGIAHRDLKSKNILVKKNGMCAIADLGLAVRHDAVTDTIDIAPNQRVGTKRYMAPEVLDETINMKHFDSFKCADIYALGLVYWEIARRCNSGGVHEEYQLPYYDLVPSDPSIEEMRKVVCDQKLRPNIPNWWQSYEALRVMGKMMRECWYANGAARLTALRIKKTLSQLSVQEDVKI
Chain of ALK3 (P36894 24-532): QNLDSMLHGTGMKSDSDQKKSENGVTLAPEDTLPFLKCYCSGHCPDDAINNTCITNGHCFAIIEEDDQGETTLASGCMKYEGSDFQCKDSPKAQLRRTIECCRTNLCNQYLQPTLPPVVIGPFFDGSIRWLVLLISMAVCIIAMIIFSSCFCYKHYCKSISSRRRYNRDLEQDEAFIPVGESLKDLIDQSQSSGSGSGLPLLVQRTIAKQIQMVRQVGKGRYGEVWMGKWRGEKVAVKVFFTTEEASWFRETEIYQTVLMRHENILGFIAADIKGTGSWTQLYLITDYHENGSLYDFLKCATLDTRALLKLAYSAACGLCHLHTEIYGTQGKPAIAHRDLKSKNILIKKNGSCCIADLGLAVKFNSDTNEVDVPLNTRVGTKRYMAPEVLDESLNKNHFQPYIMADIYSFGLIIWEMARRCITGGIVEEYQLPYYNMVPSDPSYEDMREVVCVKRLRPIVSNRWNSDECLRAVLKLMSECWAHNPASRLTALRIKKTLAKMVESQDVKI
Chain of ALK2 (Q04771 21-509): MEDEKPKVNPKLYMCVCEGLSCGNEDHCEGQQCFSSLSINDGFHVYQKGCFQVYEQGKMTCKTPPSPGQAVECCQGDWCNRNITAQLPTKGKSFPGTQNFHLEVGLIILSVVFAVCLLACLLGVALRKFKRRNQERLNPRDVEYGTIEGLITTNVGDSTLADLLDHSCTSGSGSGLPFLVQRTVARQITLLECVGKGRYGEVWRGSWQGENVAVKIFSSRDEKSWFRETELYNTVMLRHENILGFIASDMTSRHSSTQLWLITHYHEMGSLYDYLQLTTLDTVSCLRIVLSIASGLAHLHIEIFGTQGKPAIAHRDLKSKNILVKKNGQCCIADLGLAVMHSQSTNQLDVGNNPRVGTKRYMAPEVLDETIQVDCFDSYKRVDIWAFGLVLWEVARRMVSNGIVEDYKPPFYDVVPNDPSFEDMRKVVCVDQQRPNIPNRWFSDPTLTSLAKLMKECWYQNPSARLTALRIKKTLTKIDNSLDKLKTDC
Chain of ALK5 (P36897 34-503): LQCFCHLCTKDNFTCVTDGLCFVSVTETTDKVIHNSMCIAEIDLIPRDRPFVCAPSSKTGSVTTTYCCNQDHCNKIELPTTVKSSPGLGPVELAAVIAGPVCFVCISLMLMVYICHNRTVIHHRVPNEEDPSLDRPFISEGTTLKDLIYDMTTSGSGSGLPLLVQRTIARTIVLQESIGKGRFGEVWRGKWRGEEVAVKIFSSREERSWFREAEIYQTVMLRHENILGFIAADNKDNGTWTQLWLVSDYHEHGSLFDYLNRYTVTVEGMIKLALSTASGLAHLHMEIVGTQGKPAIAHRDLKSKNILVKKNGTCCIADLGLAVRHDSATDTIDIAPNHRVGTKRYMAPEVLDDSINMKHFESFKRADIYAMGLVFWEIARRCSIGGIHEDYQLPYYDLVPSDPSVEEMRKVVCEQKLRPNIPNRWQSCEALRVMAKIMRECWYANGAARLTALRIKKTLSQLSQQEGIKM

`c1ccc2c(-c3cnn4cc(-c5ccc(N6CCNCC6)cc5)cnc34)ccnc2c1` [LDN-193189, reference compound]: the “effect on caALK2-induced BRE-Luc reporter activity” value in test [1] is “in a dose-dependent manner attenuated”.
Regarding `CN1CCc2cccc(c2)Nc2nccc(n2)N2CCCc3cc(ccc32)C1` [OD16], the Kd amounted to 360 nM on ALK5; 17 nM at ALK2; 220 nM at ACVR2B; 55 nM at ALK3; 270 nM at ALK4.
As to `CN1CCC(=O)NCCNc2ccn3ncc(c3n2)-c2cccc(c2)C1` [OD29], in the test with VEGF-induced pVEGFR, the “effect on VEGF-induced pVEGFR” value is reported as “did not affect”. In addition, the Kd on ALK5 amounted to 1010 nM; at ALK2, 10 nM; at ACVR2B, 558 nM; at ALK3, 1010 nM; at ALK4, 652 nM.
